From PubChem BioAssay AID1919003 (Molecular Pharmacology Branch, DTP, NCI, 2023)

System: 786-0 complex spheroids with HUVEC/MSC, growth % test/control
Test: Anticancer human tumor 786-0 cell line growth inhibition [AhR];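 further: compound exposure lasted seven days before the read-out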
Conditions: for IC50: curve of first compound; for viability, T/C: stronger effect = lower value; active means viability on the fitted dose curve at most 10% of control; inactive means the rest
In short: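 Complex tumor spheroids co-cultured with HUVEC and human MSC stroma; AhR antagonists tested in combination with standard-of-care and investigational agents. Top concentration at or near clinical Cmax (else 10 microM), half-log dilutions; growth expressed as percent test/control.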

CC(C)CC(NC(=O)C(Cc1ccccc1)NC(=O)c1cnccn1)B(O)O (stereo not given) + Cc1cncc(-c2nc(NCCc3c[nH]c4ccccc34)c3ncn(C(C)C)c3n2)c1
18.6 nM: IC50 (second compound 0.316 µM)
8.46 nM: IC50 (second compound 3.16 µM)
inactive: viability, T/C (second compound 0.1 µM, first compound 0.000949 µM) 136% | viability, T/C (second compound 0.1 µM, first compound 0.003 µM) 119% | viability, T/C (second compound 0.1 µM, first compound 0.00949 µM) 103% | viability, T/C (second compound 0.316 µM, first compound 0.000949 µM) 127% | viability, T/C (second compound 0.316 µM, first compound 0.003 µM) 120% | viability, T/C (second compound 0.316 µM, first compound 0.00949 µM) 118% | viability, T/C (second compound 1 µM, first compound 0.000949 µM) 102% | viability, T/C (second compound 1 µM, first compound 0.003 µM) 110% | viability, T/C (second compound 1 µM, first compound 0.00949 µM) 96.9% | viability, T/C (second compound 3.16 µM, first compound 0.000949 µM) 70.7% | viability, T/C (second compound 3.16 µM, first compound 0.003 µM) 69.3% | viability, T/C (second compound 3.16 µM, first compound 0.00949 µM) 47.8% | viability, T/C (second compound 10 µM, first compound 0.000949 µM) 10.2%
17 nM: IC50 (second compound 1 µM)
17.8 nM: IC50 (second compound 0.1 µM)
< 0.949 nM: IC50 (second compound 10 µM)
active: viability, T/C (second compound 0.1 µM, first compound 0.03 µM) 5.33% | viability, T/C (second compound 0.1 µM, first compound 0.0949 µM) 0.52% | viability, T/C (second compound 0.1 µM, first compound 0.3 µM) 0.46% | viability, T/C (second compound 0.316 µM, first compound 0.03 µM) 3.15% | viability, T/C (second compound 0.316 µM, first compound 0.0949 µM) 0.85% | viability, T/C (second compound 0.316 µM, first compound 0.3 µM) 0.37% | viability, T/C (second compound 1 µM, first compound 0.03 µM) 4.16% | viability, T/C (second compound 1 µM, first compound 0.0949 µM) 0.6% | viability, T/C (second compound 1 µM, first compound 0.3 µM) 0.7% | viability, T/C (second compound 3.16 µM, first compound 0.03 µM) 1.63% | viability, T/C (second compound 3.16 µM, first compound 0.0949 µM) 0.28% | viability, T/C (second compound 3.16 µM, first compound 0.3 µM) 0.43% | viability, T/C (second compound 10 µM, first compound 0.003 µM) 16% | viability, T/C (second compound 10 µM, first compound 0.00949 µM) 2.59% | viability, T/C (second compound 10 µM, first compound 0.03 µM) 0.18% | viability, T/C (second compound 10 µM, first compound 0.0949 µM) 0.17% | viability, T/C (second compound 10 µM, first compound 0.3 µM) 0.24%

COc1cc(Nc2ncc3c(n2)-c2ccc(Cl)cc2C(c2c(F)cccc2OC)=NC3)ccc1C(=O)O + Cc1cncc(-c2nc(NCCc3c[nH]c4ccccc34)c3ncn(C(C)C)c3n2)c1
active: viability, T/C (second compound 10 µM, first compound 0.0316 µM) 4.3% | viability, T/C (second compound 10 µM, first compound 0.1 µM) 1.69% | viability, T/C (second compound 10 µM, first compound 0.316 µM) 2.04% | viability, T/C (second compound 10 µM, first compound 1 µM) 3.84% | viability, T/C (second compound 10 µM, first compound 3.16 µM) 4.27% | viability, T/C (second compound 10 µM, first compound 10 µM) 16.9%
inactive: viability, T/C (second compound 0.1 µM, first compound 0.0316 µM) 115% | viability, T/C (second compound 0.1 µM, first compound 0.1 µM) 115% | viability, T/C (second compound 0.1 µM, first compound 0.316 µM) 155% | viability, T/C (second compound 0.1 µM, first compound 1 µM) 104% | viability, T/C (second compound 0.1 µM, first compound 3.16 µM) 75.5% | viability, T/C (second compound 0.1 µM, first compound 10 µM) 38.2% | viability, T/C (second compound 0.316 µM, first compound 0.0316 µM) 121% | viability, T/C (second compound 0.316 µM, first compound 0.1 µM) 121% | viability, T/C (second compound 0.316 µM, first compound 0.316 µM) 144% | viability, T/C (second compound 0.316 µM, first compound 1 µM) 123% | viability, T/C (second compound 0.316 µM, first compound 3.16 µM) 69% | viability, T/C (second compound 0.316 µM, first compound 10 µM) 37.8% | viability, T/C (second compound 1 µM, first compound 0.0316 µM) 115% | viability, T/C (second compound 1 µM, first compound 0.1 µM) 125% | viability, T/C (second compound 1 µM, first compound 0.316 µM) 152% | viability, T/C (second compound 1 µM, first compound 1 µM) 114% | viability, T/C (second compound 1 µM, first compound 3.16 µM) 71.2% | viability, T/C (second compound 1 µM, first compound 10 µM) 37.9% | viability, T/C (second compound 3.16 µM, first compound 0.0316 µM) 63.3% | viability, T/C (second compound 3.16 µM, first compound 0.1 µM) 68.3% | viability, T/C (second compound 3.16 µM, first compound 0.316 µM) 94.2% | viability, T/C (second compound 3.16 µM, first compound 1 µM) 92.3% | viability, T/C (second compound 3.16 µM, first compound 3.16 µM) 70.1% | viability, T/C (second compound 3.16 µM, first compound 10 µM) 44.4%
< 31.6 nM: IC50 (second compound 10 µM)
7760 nM: IC50 (second compound 3.16 µM)
6870 nM: IC50 (second compound 0.1 µM)
6550 nM: IC50 (second compound 1 µM)
6370 nM: IC50 (second compound 0.316 µM)
